Source: patent US8309582B2, “Small molecule Bcl-Xl/Bcl-2 binding inhibitors” (The Ohio State University Research Foundation, priority 2004, dated 2012)
Read-outs that look alike come from different tables or passages of the source.

What was measured:
Bcl-xL = target: T1, Bcl-xL (Homo sapiens, UniProt Q07817); assay: Competitive fluorescence polarization assay, displacement of Flu-BakBH3 peptide from Bcl-xL; format: binding
T1 construct: fused on or other part: His tag
Procedure: (§1) Competitive Fluorescence Polarization Assay. The binding affinity of the test agent to Bcl-2 and Bcl-xL was analyzed by a competitive fluorescence polarization assay, in which the ability of the agent to displace the binding of a Bak BH3-domain peptide to either Bcl-2 or Bcl-xL was determined. Flu-BakBH3, a Bak-BH3 peptide labeled at the N-terminus with fluorescein, was purchased from Genemed Synthesis (San Francisco, Calif.). C-Terminal-truncated, His-tagged Bcl-xL was purchased from EMD Biosciences (San Diego, Calif.), and soluble GST-fused Bcl-2 was obtained from Santa Cruz (Santa Cruz, Calif.). The KD determination was carried out in a dual-pathlength quartz cell with readings taken at […] at room temperature using a luminescence spectrometer according to an established procedure (17). Determination of IC50 values. Data from cell viability and FP assays were analyzed by using the CalcuSyn software (Biosoft, Ferguson, Mo.) to determine IC50 values, in which the calculation was based on the medium effect equation (18), i.e., Log(fa/fu)=m log(D)−m log(Dm) (equation 1), where fa and fu denote fraction affected and unaffected, respectively; m represents the Hill-type coefficient signifying the sigmoidicity of the dose-effect curve; D and Dm are the dose used and IC50, respectively.

Bcl-2 = Bcl-2 (Homo sapiens, UniProt P10415); assay: Competitive fluorescence polarization assay, displacement of Flu-BakBH3 peptide from Bcl-2; format: binding
Procedure: as §1

PC-3 cells = assay: Cell viability analysis (MTT) in PC-3 cells; format: cell-based; conditions: Homo sapiens, PC-3, PC-3 cells, read-out: IC50 (μM) PC3
Procedure: Cell viability analysis. The effect of individual test agents on cell viability was assessed by using the MTT {[3-(4,5-dimethylthiazol-2-yl)-2,5-diphenyl-2H-tetrazolium bromide]} assay in six to twelve replicates. […] Controls received DMSO vehicle at a concentration equal to that in drug-treated cells. […] Supernatants were removed from the wells, and the reduced MTT dye was solubilized in 200 μl/well DMSO. Absorbance at 570 nm was determined on a plate reader.
(§2) Determination of IC50 values. Data from cell viability and FP assays were analyzed by using the CalcuSyn software (Biosoft, Ferguson, Mo.) to determine IC50 values, in which the calculation was based on the medium effect equation (18), i.e., Log(fa/fu)=m log(D)−m log(Dm) (equation 1), where fa and fu denote fraction affected and unaffected, respectively; m represents the Hill-type coefficient signifying the sigmoidicity of the dose-effect curve; D and Dm are the dose used and IC50, respectively.

[1] = MTT assay (IC50 for MTT, Tables 1-9); format: cell-based; conditions: cell line and unit inferred
Procedure: Cell viability analysis. The effect of individual test agents on cell viability was assessed by using the MTT {[3-(4,5-dimethylthiazol-2-yl)-2,5-diphenyl-2H-tetrazolium bromide]} assay in six to twelve replicates. Cells were seeded and incubated in 96-well, flat-bottomed plates in serum-free media for 24 h, and were exposed to various concentrations of test agents dissolved in DMSO (final concentration, 0.1%) in serum-free RPMI 1640 medium for different time intervals. Controls received DMSO vehicle at a concentration equal to that in drug-treated cells. The medium was removed, replaced by 200 μl of 0.5 mg/ml of MTT in 10% FBS-containing RPMI-1640 medium, and cells were incubated in the CO2 incubator at 37° C. for 2 h. Supernatants were removed from the wells, and the reduced MTT dye was solubilized in 200 μl/well DMSO. Absorbance at 570 nm was determined on a plate reader.
as §2

[2] = WB (IC50 for WB, Tables 1-9); format: cell-based; conditions: marker, cell line and unit inferred
Procedure: Immunoblotting. Cells in T-75 flasks were collected by scraping, and suspended in 60 μl of phosphate-buffered saline (PBS). Two μl of the suspension was taken for protein analysis using the Bradford assay kit (Bio-Rad, Hercules, Calif.). To the remaining solution was added the same volume of 2×SDS-PAGE sample loading buffer (100 mM Tris-HCl, pH 6.8, 4% SDS, 5% β-mercaptoethanol 20% glycerol, and 0.1% bromophenol blue). The mixture was sonicated briefly, and boiled for 5 min. Equal amounts of proteins were loaded onto 10% SDS-PAGE gels.
After electrophoresis, protein bands were transferred to nitrocellulose membranes in a semidry transfer cell. The transblotted membrane was washed twice with Tris-buffered saline (TBS) containing 0.1% Tween 20 (TBST). After blocking with TBST containing 5% nonfat milk for 40 min, the membrane was incubated with the appropriate primary antibody in TBST-1% nonfat milk at 4° C. overnight. All primary antibodies were diluted 1:1000 in 1% nonfat milk-containing TBST. After treatment with the primary antibody, the membrane was washed three times with TBST for a total of 15 min, followed by incubation with goat anti-rabbit or anti-mouse IgG-horseradish peroxidase conjugates (diluted 1:5000) for 1 h at room temperature and three washes with TBST for a total of 1 h. The immunoblots were visualized by enhanced chemiluminescence.

[3] = unit inferred, read-out: IC50 for inhibiting BH3-mediated protein interactions (Bcl-xL)
[4] = unit inferred, read-out: IC50 for inhibiting BH3-mediated protein interactions (Bcl-2)
[5] = inhibition of Bak BH3 peptide binding to Bcl-xL, FP, read-out: IC50 Bcl-xl/Bak
[6] = inhibition of Bak BH3 peptide binding to Bcl-2, FP, read-out: IC50 Bcl-2/Bak

T1 sequence (Q07817 1-209 limits assumed): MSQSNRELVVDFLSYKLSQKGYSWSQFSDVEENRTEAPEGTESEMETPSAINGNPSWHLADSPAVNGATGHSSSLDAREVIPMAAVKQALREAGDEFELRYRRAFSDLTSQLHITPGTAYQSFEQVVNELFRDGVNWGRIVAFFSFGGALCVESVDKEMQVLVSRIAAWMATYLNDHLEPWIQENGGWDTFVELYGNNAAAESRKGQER
Bcl-2, sequence (P10415 whole entry): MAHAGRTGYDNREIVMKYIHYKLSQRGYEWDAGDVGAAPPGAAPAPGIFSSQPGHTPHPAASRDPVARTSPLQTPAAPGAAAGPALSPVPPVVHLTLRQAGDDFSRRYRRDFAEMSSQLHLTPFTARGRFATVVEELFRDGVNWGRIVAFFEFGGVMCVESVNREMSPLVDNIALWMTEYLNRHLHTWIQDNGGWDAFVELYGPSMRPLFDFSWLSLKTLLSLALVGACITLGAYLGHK

SMILES | IC50 (Bcl-xL; [3]) [µM] | IC50 (Bcl-2; [4]) [µM] | IC50 (Bcl-xL; [5]) [µM] | IC50 (Bcl-2; [6]) [µM] | IC50 (PC-3 cells) [µM] | IC50 [1] [µM] | IC50 [2] [µM]
CCc1ccc(CCOc2ccc(CC3SC(=O)NC3=O)cc2)nc1 (centres unmarked) [PG, pioglitazone, reference compound] | > 50 | > 50 | – | – | – | – | –
CN(CCOc1ccc(CC2SC(=O)NC2=O)cc1)c1ccccn1 (centres unmarked) [RG, rosiglitazone, reference compound] | > 50 | > 50 | – | – | – | – | –
C=CCOc1c(C)c(C)c2c(c1C)CCC(C)(COc1ccc(/C=C3\SC(=S)NC3=O)cc1)O2 (centres unmarked) [TG-3] | – | – | 4.8 ± 0.5 | 7.3 ± 0.3 | 10 ± 1.2 | – | –
C=CCOc1c(C)c(C)c2c(c1C)CCC(C)(COc1ccc(/C=C3\SC(=O)NC3=O)cc1)O2 (centres unmarked) [TG-6] | – | – | 6 ± 0.5 | 5.5 ± 0.4 | 11 ± 0.8 | 9 | 3
C=CCOc1c(C)c(C)c2c(c1C)CCC(C)(COc1ccc(/C=C3\SC(=O)N(CC(=O)OC)C3=O)cc1)O2 (centres unmarked) [TG-9] | – | – | > 50 | > 50 | > 50 | > 50 | > 7.5
Cc1c(C)c2c(c(C)c1OC/C=C/c1ccccc1)CCC(C)(COc1ccc(/C=C3\SC(=O)NC3=O)cc1Br)O2 (centres unmarked) [TG-11] | – | – | 2.2 ± 0.2 | 3.1 ± 0.4 | 6 ± 0.3 | – | > 7.5
Cc1c(C)c2c(c(C)c1OCc1ccccc1)CCC(C)(COc1ccc(/C=C3\SC(=O)NC3=O)cc1)O2 (centres unmarked) [TG-12] | – | – | 14 ± 1.1 | 18 ± 0.9 | 18 ± 1.3 | – | 3.6
CC(C)=CCOc1c(C)c(C)c2c(c1C)CCC(C)(COc1ccc(/C=C3\SC(=O)NC3=O)cc1)O2 (centres unmarked) [TG-14] | – | – | 4.5 ± 0.4 | 4.8 ± 0.4 | 9 ± 1 | – | 7
O=C1NC(=O)/C(=C/c2ccc(OCC3CCc4ccccc4C3)cc2)S1 (centres unmarked) [TG-15] | – | – | 16 ± 0.5 | 18 ± 0.9 | 12 ± 0.9 | – | 3.8
COc1cc(/C=C2\SC(=O)NC2=O)ccc1OCC1(C)CCc2c(C)c(OCC=C(C)C)c(C)c(C)c2O1 (centres unmarked) [TG-16] | – | – | 6.5 ± 0.5 | 4.8 ± 0.5 | 4.7 ± 0.2 | – | 5.6
CC(C)=CCOc1c(C)c(C)c2c(c1C)CCC(C)(COc1ccc(/C=C3\SC(=O)NC3=O)cc1C)O2 (centres unmarked) [TG-17] | – | – | 2.6 ± 0.3 | 3.1 ± 0.4 | 4.8 ± 0.3 | – | 3.2
C=CCOc1c(C)c(C)c2c(c1C)CCC(C)(COc1ccc(/C=C3\SC(=O)NC3=O)cc1Br)O2 (centres unmarked) [TG-27] | – | – | 2.1 ± 0.2 | 2.7 ± 0.4 | 5 ± 0.5 | – | > 7.5
C=CCOc1c(C)c(C)c2c(c1C)CCC(C)(COc1ccc(/C=C3\SC(=O)NC3=O)cc1OC)O2 (centres unmarked) [TG-28] | – | – | 4 ± 0.3 | 4.4 ± 0.3 | 5.2 ± 0.5 | – | 2.3
C=CCOc1c(C)c(C)c2c(c1C)CCC(C)(COc1ccc(/C=C3\SC(=O)NC3=O)cc1C)O2 (centres unmarked) [TG-29] | – | – | 3 ± 0.3 | 3.5 ± 0.6 | 5.1 ± 0.4 | – | 3.6
CC(C)=CCOc1c(C)c(C)c2c(c1C)CCC(C)(COc1ccc(/C=C3\SC(=O)NC3=O)cc1F)O2 (centres unmarked) [TG-30] | – | – | 2.7 ± 0.3 | 3.4 ± 0.5 | 6 ± 0.4 | – | 7.2
CC(C)=CCOc1c(C)c(C)c2c(c1C)CCC(C)(COc1ccc(/C=C3\SC(=O)NC3=O)cc1-c1ccc(F)cc1)O2 (centres unmarked) [TG-32] | – | – | 6.5 ± 0.5 | 6.6 ± 0.6 | 5 ± 0.4 | – | > 7.5
CC(C)=CCOc1c(C)c(C)c2c(c1C)CCC(C)(COc1c(Br)cc(/C=C3\SC(=O)NC3=O)cc1Br)O2 (centres unmarked) [TG-34] | – | – | 2 ± 0.2 | 2.8 ± 0.4 | 4.4 ± 0.4 | – | 2.7
